Where no end group is shown, it is not given here.

Experiment [1] deals with T1, EGF (Homo sapiens, UniProt P01133). The experiment is described as follows: biochemical. The conditions noted are these: binding affinity (KD) for EGF, CK-linker modified peptide immobilized on CM5 chip, Biacore 3000, 25° C., EGF 62.5-1000 nM, 1-to-1 Langmuir fit.
Description: “Test Method A” refers to the following general surface plasmon resonance (SPR) binding assay. Target protein (e.g., EGF and tumor necrosis factor alpha (TNFα)) is immobilized at 25° C. and diluted peptides are injected for 3 min at a flow rate of 10 μl/min at 25° C.
The immobilization was performed at 25° C. using HBS-EP as the running buffer. The CM-dextran surfaces of the sensor chip flow cells were activated by a seven minute injection (20 microliters/minute) of freshly prepared 1:1 50 mM NHS: 200 mM EDC. […] The coupling step was followed by a seven minute injection (20 microliters/minute) of ethanolamine hydrochloride-NaOH (1M, pH 8.5) which deactivated residual reactive sites.
The kinetic analysis for EGF was performed at 25° C. The EGF was diluted in HBS-EP buffer and centrifuged at 14,000 rpm for five minutes at 4° C. Individual test samples of EGF at various concentrations (62.5, 125, 250, 500 and 1000 nM) were injected for three minutes at a flow rate of 10 microliters/minute. The surface was regenerated by injection of 10 microliters of glycine-HCl in water (20 mM, pH 2.5).
The data analysis was carried out using the BIA Evaluation Software Kit obtained from GE Healthcare Bio-Sciences Corporation. The assay data fitted 1-to-1 Langmuir using global curve fitting analysis.
The next experiment concerns the target T2, TNF-α (Homo sapiens, UniProt P01375).
T2 construct: purchased Abcam plc, Cambridge, Mass
The experiment can be described thus: Surface plasmon resonance (SPR) binding assay (Test Method A), TNF-α. As to conditions: CK-linker modified peptide immobilized on CM5 chip, Biacore 3000, 25° C., TNF-α 62.5-1000 nM, 1-to-1 Langmuir fit; read-out: binding affinity (KD) for TNF-α. On the technique in general: Surface plasmon resonance follows binding to a sensor surface in real time, without labels.

The target of experiment [2] is T1, EGF. The experiment is described as follows: Dot blotting analysis of biotinylated peptide with membrane-spotted EGF. It is filed as binding. Also on record: Recombinant Human Epidermal Growth Factor (EGF); purchased Abcam plc, Cambridge, Mass. As to conditions: EGF 10 nM spotted; biotinylated peptide 10 ng/mL; Streptavidin-HRP, TMB. The method, then:
EGF (1 microliter of a 10 nM solution in PBS was spotted a nitrocellulose membrane (obtained from Thermo Fisher Scientific) and the membrane was dried in air for about 30 minutes. The membrane was then incubated in 15 mL of blocking buffer (3 wt. % BSA in PBS) for one hour at room temperature. The membrane was washed three times (15 minutes for each wash) with 15 mL portions of fresh PBST. The washed membrane was incubated with Biotinylated SEQ ID NO: 1 [10 mL of a 10 ng/mL solution in blocking buffer (3 wt. % BSA in PBS)] with gentle agitation for one hour. The membrane was again washed three times (15 minutes for each wash) with 15 mL portions of fresh PBST. The washed membrane was incubated with Streptavidin-HRP [1:5000 dilution in 10 mL of the blocking buffer (3 wt. % BSA in PBS)] for 30 minutes with gentle agitation. Following the incubation, the membrane was washed three times (15 minutes for each wash) with 15 mL portions of fresh PBST. The washed membrane was incubated with 10 mL of the development solution for horseradish peroxidase (TMB-Blotting Substrate Solution, Pierce-Fisher Scientific) with gentle agitation. The color development was stopped by adding water.

T1 sequence (P01133 971-1023 limits assumed): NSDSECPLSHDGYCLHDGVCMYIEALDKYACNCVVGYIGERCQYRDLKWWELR
T2 sequence (P01375 77-233 limits assumed): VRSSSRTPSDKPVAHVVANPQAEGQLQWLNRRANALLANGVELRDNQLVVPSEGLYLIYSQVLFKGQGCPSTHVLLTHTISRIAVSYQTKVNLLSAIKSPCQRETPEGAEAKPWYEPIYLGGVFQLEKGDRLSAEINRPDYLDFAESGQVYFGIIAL

For the substance “Ac-WFEWPYWEMNVPDVWN-NH2 [SEQ ID NO: 1, WFEWPYWEMNVPDVWN]”, the Kd came out at 0.08 µM at EGF [1] and 75 µM on TNF-α.

Take “Biotinylated SEQ ID NO: 1: Biotinylated version of peptide SEQ ID NO: 1 (WFEWPYWEMNVPDVWN; also: biotinylated, site not given here)”: the “dot blot colour development at EGF application site (affinity for EGF)” value with EGF [2] was “A dark spot developed”.

For orientation: Kd means the equilibrium constant for the complex coming apart.
